Test results reported in patent US20250276996A1, “CATIONICALLY-ENFRAMED HIGH DENSITY AROMATIC PEPTIDES” (Research Foundation of the City University of New York, priority 2022, published 2025).
Entries after “also recorded” stand apart in the source; their conditions may differ. Non-standard residues stand in square brackets, D forms with d. Residues, ends and D or L forms follow the SMILES beside them. *: point of attachment. Biotin = O=C1N[C@H]2[C@H](CS[C@H]2CCCCC(=O)*)N1

Assays:
MDBK cells [1] = experiment: Uptake and intracellular localization of biotin-HDAP2 (streptavidin staining); assay type: cell-based, bovine; conditions: for cellular uptake and intracellular localization: 37° C., up to 1 h
Experimental: (§1) Biotin-HDAP2 was studied using Madin-Darby Bovine Kidney Epithelial cell line (MDBK). Monolayers of cells were grown on 6-well plates for 3 days. On day 4, cells were washed twice with pre-warmed DMEM, and then incubated with 0.2 ml of DMEM containing 10 μM biotin-HDAP2 at 37° C. for up to 1 h. Cells were then washed and fixed in 4% paraformaldehyde and biotin-HDAP2 was detected using Alexa FLUOR™ 488 streptavidin. Cells were also co-stained with MitoTracker-Red or DAPI to identify cytoplasmic compartment or nuclei, respectively. Cells were then visualized in a fluorescent microscope (Nikon Eclipse-ci-SRS).
as §1, with “MitoTracker-Red” for “MitoTracker-Red or DAPI”, “identify mitochondria.” for “identify cytoplasmic compartment or nuclei, respectively.”, “visualized using” for “visualized in”
Biotin-HDAP2 uptake: To assess uptake of biotin-HDAP2 into cells, cultures were incubated in serum-free media for three days to deplete endogenous biotin (Birk et al., 2013) and then treated with biotin-HDAP2 (1 μM) for one hour. Cells were fixed with 4% paraformaldehyde and incubated for one hour with Alexa Fluor 594 conjugated streptavidin (1:100, Jackson ImmunoResearch) to localize the peptide within the cells, Hoechst 33342 (10 μg/ml, Novus) to label nuclei, and Mito Tracker Red CMXRos (MTR; 50 nM, Invitrogen) to identify mitochondria; MTR binds to thiol groups, which are heavily concentrated in the mitochondrial matrix. Cells were rinsed and imaged immediately in the dish using a Nikon Eclipse 50i fluorescent microscope with a 40× immersion objective (NA 0.8).
Intracellular Localization of biotin-HDAP2: Intracellular targeting of biotin-HDAP2 was determined by incubating MDBK cells (ATCC-CCL22) that were grown in biotin-free media for 72 hours, with 10 μM of N-biotinylated biotin-HDAP2 for 1 hour. Cells were then fixed with 4% paraformaldehyde, permeabilized with 0.1% Triton X-100, and treated with streptavidin conjugated with Alexa Fluor 488 (SA) for 30 minutes at room temperature. […]
SA fluorescence was normalized to Hoechst fluorescence to account for differences in cell number in each field. The intensity of SA fluorescence was measured in each field, using the “Analyze” feature in ImageJ to compute the mean pixel intensity (in arbitrary fluorescence units) from the images. […]

MDBK cells [2] = experiment: Serum starvation cell death, methylene blue staining; assay type: cell-based, bovine; conditions: serum-free media 5-7 days, read-out: EC50, prevention of cell death
Experimental: MDBK cells were incubated in serum-free media for 5-7 days in the presence or absence of different concentrations of biotin-HDAP2. At the end of the incubation period, media was removed, the cells were fixed in 4% PFA and then stained with Methylene Blue Loeffler for 30 minutes. Images were obtained using a Tiffen Zoom Camera, interfaced with PC Image, and analyzed using ImageJ NIH software. Experiments were conducted 5 times in triplicates for each experimental condition. Biotin-HDAP2 prevented cell death in a dose-dependent manner with EC50 of about 300 nM (FIG. 4).

[3] = Nile Red fluorescence shift in POPC-CL liposomes; assay type: binding, bovine; conditions: 638 nm before the shift
Experimental: (§2) The resulting multilamellar vesicles were vortexed lightly and sized into small unilamellar vesicles by heated bath sonication for 25 min. All liposomes were cooled to ambient temperature before use.
Interactions between biotin-HDAP2 and Phospholipid liposomes measured by Nile Red fluorescence: The hydrophobicity of biotin-HDAP2 and phospholipids was examined by changes in the spectral fluorescence shift and intensity of Nile Red (NR, 10 μM). NR increases its intensity of fluorescence when combined with the hydrophobic environments of acyl chains of phospholipids, and produces a blue shift when hydrophobicity is increased. All experiments were done with 30 μM of either CL or POPC and 30 μM of biotin-HDAP2 in 10 mM Hepes (pH 7.4) to optimize the electrostatic interactions of peptides with phospholipids. The solvents used to dissolve the various phospholipids (chloroform, methanol, and ethanol) had negligible effects on the fluorescence spectra.

[4] = Displacement of nonyl acridine orange (NAO) from POPC-CL liposomes; assay type: binding, bovine
Experimental: as §2
Interaction of biotin-HDAP2 Peptide with Phospholipids: The ability of biotin-HDAP2 to displace nonyl acridine orange (NAO), a fluoroprobe known to selectively bind CL was determined. Interaction of biotin-HDAP2 with phospholipids was examined by measuring changes in the fluorescence spectra of 3 μM NAO (Molecular Devices, Sunnyvale, CA)) with excitation at 480 nm. CL and POPC in liposomes were use at 30 μM. Dose response curves were done with 30 μM CL, biotin-HDAP2 (0, 2.5, 5, 10, 20, and 30 μM), and 3 μM of NAO (ex/em at 480 nm/520 nm). All experiments were done in 10 mM Hepes (pH 7.4) to optimize electrostatic interactions of peptides with phospholipids.

[5] = tested on: antimycin-induced scratching; experiment: Topical antimycin-induced scratching; assay type: in vivo, C57BL/6J mice; conditions: 100 μM topical with 200 μM antimycin, 60 min
Experimental: However, antimycin-induced scratching in mice was […] by biotin-free HDAP2. Dermal administration of antimycin, a mitochondrial Complex III irreversible inhibitor, is known to induce ROS formation and oxidative stress in C fibers of sensory neurons, resulting in severe scratching in mice. Biotin-HDAP2 and biotin-free HDAP2 were tested to see if either can inhibit topical antimycin-induced itching in 12 months old C57BL/6J mice. […] Specifically, 200 μM of topical antimycin in methanol induced itching, which was monitored for 60 min. […] Error bars represent SEM (n=3) **P<0.001. Topical administration of 100 μM of biotin-free HDAP2 with antimycin increased scratching by 2.5 fold. Error bars represent SEM (n=3) ***P<0.0001.

For `N=C(N)NCCC[C@@H](NC(=O)[C@H](Cc1ccccc1)NC(=O)[C@H](Cc1ccccc1)NC(=O)[C@@H](CCCNC(=N)N)NC(=O)CCCC[C@@H]1SC[C@@H]2NC(=O)N[C@@H]21)C(N)=O` [biotin-HDAP2, Biotin-dArg-Phe-Phe-dArg-NH2] (Biotin-[dR]FF[dR]-NH2), the “cellular uptake and intracellular localization” value (MDBK cells [1]; 10 μM) was “targets mitochondria; also recorded: penetrates cell membranes”, the “cellular uptake and intracellular localization” value (MDBK cells [1]; 10 μM, listed as Biotin-HDAP2) was “primarily localized to the cytoplasmic compartment; also recorded: taken into mitochondria; also recorded: co-localized with MitoTracker-Red” and the “speed of entry into the cell compared with biocytin” value (MDBK cells [1]; 10 μM, 1 hour, serum-starved MDBK cells) was “about 6 times”. The “level of biotin-HDAP2 in cells relative to endogenous biotin” value (MDBK cells [1]; MDBK cells, streptavidin AF 488) was over 10 ×, the EC50 (MDBK cells [2]) was about 0.3 µM and the “Nile Red emission after blue shift” value [3] was 618 nm. For the same compound, the “effect on intensity of NAO fluorescence” value [4] was “decreased the intensity of NAO fluorescence to background levels; also recorded: decreases the intensity of NAO fluorescence with POPC-CL liposomes in a dose-dependent manner” and the “effect on antimycin-induced scratching” value [5] was “inhibited scratching”.
